Reference: patent US20230135501A1, “GENE THERAPY” (UCL BUSINESS LTD, priority 2020, published 2023)

Experiments:
Format in all cases: cell-based
[1] = test system: porcine primary RPE cells; assay: POS-induced pseudopod/contractile cup formation, pMLC and POS centring at 30 min in primary porcine RPE cells
Source text: Fixation and processing cells and mouse tissue sections was as previously described in Zihni, C. et al (2017). The following antibodies were used: RPE65 mouse monoclonal (Millipore) 1/300 for immuno-fluorescence; p-MLC S19, mouse monoclonal (Cell Signaling Technology) immunofluorescence 1/100 and immunoblotting 1/1000; Dbl(3), rabbit polyclonal (Santa Cruz Biotechnology) immunofluorescence 1/200; MRCKβ, rabbit polyclonal (Santa Cruz Biotechnology) immunofluorescence 1/200 and immunoblotting 1/500; anti-Cdc42-GTP mouse monoclonal (NewEast Biosciences) immunofluorescence 1/50; N-WASP, rabbit polyclonal (Santa Cruz Biotechnology) immunofluorescence and immunoblotting 1/1000; MerTK rabbit monoclonal (Abcam 52968) immunofluorescence 1/100; Integrin αVβ5, mouse monoclonal (Clone P1F6) (Abcam 24694) immunofluorescence 1/100; pFAK Y397, rabbit polyclonal (Invitrogen) immunofluorescence 1/100; pSrc Y416, rabbit polyclonal (Cell Signaling Technology) immunofluorescence 1/100; Phalloidin-Atto 647 reagent was obtained from Sigma and diluted 1/1000. Affinity-purified and cross-adsorbed Alexa488-, Cy3- and Cy5-labelled donkey anti-mouse, rabbit, or goat secondary antibodies were from Jackson ImmunoResearch Laboratories (1/300 diluted from 50% glycerol stocks). Affinity-purified HRP-conjugated goat anti mouse and rabbit, and donkey anti goat secondary antibodies 1/5000 were also from Jackson ImmunoResearch Laboratories (1/5000 diluted from 50% glycerol stocks). For immunofluorescence analysis cells and tissues were mounted using Prolong Gold antifade reagent (Life technologies) and imaging was performed using Zeiss 700 and 710 confocal microscopes and a 64× oil lens/NA1.4. Images were processed using Zeiss Zen 2009 and Adobe Photoshop CS5 and 10 software. Co-immunoprecipitation and immunoblotting were carried out using methods previously described and were repeated at least three times.

[2] = test system: porcine primary RPE cells; assay: POS phagocytosis (internalization) in primary porcine RPE cells; set-up: ability of RPE cells to internalize POS (confocal z-sections): dose or concentration left out as unconfirmed
Source text: Wilcoxon tests also were used where indicated.
The inventors next asked whether MRCKβ is directly involved in POS internalization using porcine primary RPE cells. […] MRCK was not required for POS to attach to the RPE, indicating integrin αVβ5-POS binding was not affected (FIGS. 2b and 2f). POS binding stimulates the formation of extended pseudopods that retract with internalization of POS. […] Thus, MRCKβ controls POS-induced membrane remodelling during phagocytic cup formation and particle internalization.

[3] = test system: Primary porcine RPE; assay: POS/Gas-6 stimulated pseudopod assembly in serum-free primary porcine RPE; details: serum-free medium 4 h, 30 min stimulation with POS-FITC, with Gas-6
Experimental: Primary porcine RPE was cultured in serum-free medium, to eliminate effects of MerTK ligands, for 4 h followed by treatment with either N-WASP or MRCK inhibitor and a 30 min stimulation with POS-FITC in the absence or presence of Gas-6, which links MerTK to POS.

Molecule: CN(C)C[C@H](O)Cn1c2ccc(Br)cc2c2cc(Br)ccc21 (racemic) [Wiskostatin]
- pMLC activity/staining at pseudopods/cups ([1]; POS for 30 minutes): reduced
- less F-actin in pseudopods when compared to control cells ([1]; Wiskostatin used at 5 μM): approx. 50%
- number of cells forming normal pseudopods ([1]; Wiskostatin used at 5 μM): drastic reduction

Molecule: O=C(Nc1cn[nH]c1-c1ccccn1)c1nn(C2CCNCC2)cc1Cl [BDP5290]
- phagocytosis of GOLD-labelled POS (transmission electron microscopy) ([2]; GOLD-labelled POS, TEM): inhibition of phagocytosis
- ability of RPE cells to internalize POS (confocal z-sections) ([2]; POS-FITC 1 h followed by 2 h chase): strongly inhibited
- POS centring at pseudopods/cups ([1]; POS for 30 minutes): un-centred POS
- efficiency of POS binding to RPE cells ([1]; POS for 30 minutes): unaltered
- pMLC activity/staining at pseudopods/cups ([1]; POS for 30 minutes): lack pMLC activity
- MLC phosphorylation after blebbistatin washout ([1]; washout of blebbistatin in the presence of the MRCK inhibitor): inhibition of MLC phosphorylation
- POS-dependent pseudopod assembly [3]: did not inhibit

Molecule: Cc1ccc2c(c1)C(=O)C1(O)CCN(c3ccccc3)C1=N2 (stereo not shown) [blebbistatin, Blebbistatin]
- pseudopod/cup organization ([1]; Blebbistatin used at 10 μM): disorganised pseudopods
- POS centring at pseudopods/cups ([1]; POS for 30 minutes): loss of efficient POS centring

B1: Gas-6: growth arrest-specific 6, soluble protein which links MerTK to POS (protein, UniProt Q14393 31-678, looked up)
Growth arrest-specific …: ALLPAREATQFLRPRQRRAFQVFEEAKQGHLERECVEELCSREEAREVFENDPETDYFYPRYLDCINKYGSPYTKNSGFATCVQNLPDQCTPNPCDRKGTQACQDLMGNFFCLCKAGWGGRLCDKDVNECSQENGGCLQICHNKPGSFHCSCHSGFELSSDGRTCQDIDECADSEACGEARCKNLPGSYSCLCDEGFAYSSQEKACRDVDECLQGRCEQVCVNSPGSYTCHCDGRGGLKLSQDMDTCEDILPCVPFSVAKSVKSLYLGRMFSGTPVIRLRFKRLQPTRLVAEFDFRTFDPEGILLFAGGHQDSTWIVLALRAGRLELQLRYNGVGRVTSSGPVINHGMWQTISVEELARNLVIKVNRDAVMKIAVAGDLFQPERGLYHLNLTVGGIPFHEKDLVQPINPRLDGCMRSWNWLNGEDTTIQETVKVNTRMQCFSVTERGSFYPGSGFAFYSLDYMRTPLDVGTESTWEVEVVAHIRPAADTGVLFALWAPDLRAVPLSVALVDYHSTKKLKKQLVVLAVEHTALALMEIKVCDGQEHVVTVSLRDGEATLEVDGTRGQSEVSAAQLQERLAVLERHLRSPVLTFAGGLPDVPVTSAPVTAFYRGCMTLEVNRRLLDLDEAAYKHSDITAHSCPPVEPAAA
- POS-dependent pseudopod assembly [3]: sharp increase
